Data set [1] can be described thus: Normal cell cytotoxicity in CD34+ HSC, CellTiter-Glo. It counts as cell-based. The note with it: human, CD34+ hematopoietic stem cells (HSCs), read-out: In vitro cell cytotoxicity in CD34+ HSC CC50. As for the experimental part: The CD34^+ hematopoietic stem cells (HSCs) were purchased from […]™ (#70002.3). The cells (2×10^4 cells per well) were cultured in StemSpan™ SFEM II medium supplemented with StemSpan™ CD34+ Expansion Supplement (#02691) in a 6-well plate at 37° C. for 7 days. On day 3 or 4, an equal volume of fresh complete medium was added into the cell culture. On day 7, the cells (4×10^4 cells per well) were seeded in a 96-well white plate and rested for 24 hours in the same condition.
After 72 hours, the cell viability was measured using CellTiter-Glo Luminescent Cell Viability Assay (Promega, #G7573) according to the manufacture's instruction. The signal was detected using an EnVision Xcite multilabel reader and data were analyzed using GraphPad Prism 8 software.

A short description of data set [2]: Plasma pharmacokinetics in naive Balb/C mouse, LC-MS/MS. It counts as in vivo. To be noted: 1.5 mg/kg single IV. How it is done: For in vivo evaluation of STING agonist compounds described herein in naïve Balb/C mouse, single doses of STING agonist compounds were given at 1.5 mg/kg intravenously into female BALB/c mice (Orientbio, South Korea) at 6-8 weeks of age. Pharmacokinetics were studied following injection of the STING agonist compounds into Balb/C mice. Plasma samples were taken at various time points and stored frozen for analysis. The plasma concentrations of the STING agonist compounds at the indicated time points were measured using a LC-MS/MS analysis method.
Briefly, 250 μL of acetonitrile (ACN) solution was added in both 50 μL of sample and 50 μL of plasma containing 10 nM Dextromethorphan (internal standard), and the solutions were mixed vigorously using a vortex mixer for 5 minutes. The samples were then spun down at 14,000 rpm, 4° C. for 5 minutes. 100 μL of supernatants were combined with 100 μL of mobile phase A (0.1% formic acid in water with 5% ACN) and mixed thoroughly. The samples were measured for the STING agonist compounds using a LC-MS/MS (Nexera LC40 (SHIMADZU) and QTRAP4500 (SCIEX)).

Data set [3] is described as follows: Normal cell cytotoxicity in PBMCs, CellTiter-Glo. The note with it: human, read-out: In vitro cell cytotoxicity in PBMCs CC50. The data set is classed as cell-based. How it is done:
PBMCs were also purchased from […]™ (#700025.2). The cells (8.0×10^4 cells per well) were seeded in a flat-bottomed 96-well plate in RPMI 1640 medium (Gibco, #22400097) with 10% heat-inactivated FBS and 1× Antibiotic-Antimycotic (Gibco, #15240062) and rested for 24 hours at 37° C. […] After 72 hours, the cell viability was measured using CellTiter-Glo Luminescent Cell Viability Assay (Promega, #G7573) according to the manufacture's instruction. The signal was detected using an EnVision Xcite multilabel reader and data were analyzed using GraphPad Prism 8 software.
To verify the effect of the STING agonist compounds in normal cell cytotoxicity, the PBMCs were treated with the STING agonist compounds for 3 days and measured the percentage of cell death.

The target in a further data set is T1, hSTING H232 variant (Homo sapiens, UniProt Q86WV6).
T1 construct: host or cells: THP1-Dual cells (human monocytes) with knocked-in hSTING H232
Nature of the data set: STING activation, THP1-Dual IRF3 reporter assay, hSTING-H232 cells. It counts as cell-based. To be noted: IRF3 luciferase reporter, 24 hours, read-out: STING activity using hSTING-H232 cells, H232 EC50. How it is done: (§1) To assess potency of STING agonist compounds described herein, THP1-Dual™ Cells (NF—KB-SEAP and IRF-Lucia luciferase reporter monocytes, InvivoGen) were used. The reporter cells were knocked-in either of hSTING-WT (R232, #thpd-r232), HAQ variant (#thpd-nfis), or H232 variant (#thpd-h232). All cells were cultured at 37° C. in a humidified incubator at 5% CO2 and maintained in RPMI 1640 medium (Gibco, #22400097) supplemented with 10% heat-inactivated FBS and 1×Pen-Strep (Gibco, #15140122). To measure STING agonist-mediated IRF3 activity, the cells (9.0×10^4 cells per well) were seeded in a flat-bottomed 96-well plate. The next day, the cells were treated with compounds in a serial dilution for 24 hours. Subsequently, 20 μL of the cell culture supernatant and 50 μL of the QUANTI-Luc™ reagent (InvivoGen, #rep-qlc) were mixed in a 96-well white plate and then, luciferase activity was measured using an EnVision Xcite multilabel reader. The data were analyzed using Prism8 software (4-parameter).
(§2) The potency of STING agonist compounds was evaluated by the activation of Type I Interferon pathway using THP-1 IRF3 reporter assay.

The next data set addresses T2, hSTING-WT (R232) (Homo sapiens, UniProt Q86WV6, H232R).
T2 construct: host or cells: THP1-Dual cells (human monocytes) with knocked-in hSTING R232
Put plainly: STING activation, THP1-Dual IRF3 reporter assay, hSTING-R232 cells. It counts as cell-based. To be noted: IRF3 luciferase reporter, 24 hours, read-out: STING activity using hSTING-R232 cells EC50. How it is done:
as §1, §2

Another data set deals with T3, hSTING HAQ variant (Homo sapiens, UniProt Q86WV6, G230A/H232R/R293Q/R71H).
T3 construct: host or cells: THP1-Dual cells (human monocytes)
Nature of the data set: STING activation, THP1-Dual IRF3 reporter assay, hSTING-HAQ cells. The data set is classed as cell-based. To be noted: IRF3 luciferase reporter, 24 hours, read-out: STING activity using hSTING-HAQ cells, HAQ EC50. How it is done:
as §1, §2

In a further data set the target is T4, human STING (Homo sapiens, UniProt Q86WV6, H232R).
T4 construct: purchased Cisbio 64BDSTGPEG
Put plainly: Direct STING binding, HUMAN STING WT BINDING KIT (Cisbio). The note with it: direct binding to human STING WT protein in vitro; read-out: Binding potency EC50. An excerpt:
Additionally, for analysis of direct binding potency of STING agonist compounds described herein to human STING, HUMAN STING WT BINDING KIT (Cisbio, #64BDSTGPEG) was used according to the manufacture's instruction.

The test system of data set [4] is human PBMCs (CD8+ T cells and NK cells). Put plainly: CD8+ T and NK cell activation in PBMCs by flow cytometry. To be noted: 3 μM, 24 hours; for expansion of activated CD8+ T cells: FIG. 5A; for expansion of activated NK cells: FIG. 5B. It counts as cell-based. As for the experimental part:
To test the effect of STING agonist compounds described herein in the activation of innate and adaptive immune cells, flow cytometry (FACS) was performed. Human THP-1 cells (Korean Cell Line Bank, #40202) and PBMCs were seeded at 1.2×10^5 cells per well in a round-bottomed 96-well plate in RPMI 1640 medium (Gibco, #22400097) supplemented with 10% heat-inactivated FBS and 1× Antibiotic-Antimycotic (Gibco, #15240062) and rested for 24 hours at 37° C. The cells were stimulated with the STING agonist compounds as described; For THP-1 stimulation, the cells were treated with the STING agonist compound (Compound 313) in a 5-fold serial dilution from 1 μM for 48 hours. The induction of cell surface activation markers, CD86 (co-stimulatory molecule) and HLA-DR (MHC-class II), was measured by flow cytometry. […] For flow cytometry analysis, the stimulated cells were centrifuged at 300 g for 5 minutes at 4° C., and then resuspended in FACS buffer (2% FBS, 2 mM EDTA in PBS). After staining cells with human Fc blocker (BD Biosciences, #564220) in FACS buffer for 10 minutes at 4° C. Subsequently, the cells were stained with fluorescence-conjugated antibodies against CD8, CD3, CD56, and CD69 for CD8 T and NK cells activation and against CD86 and MHC-II for THP-1 naïve cells activation for 40 minutes at 4° C. After washing three times with FACS buffer, the cells were resuspended in FACS buffer and analyzed by FACSlyric (BD bioscience). The data were analyzed with Flowjo 9.0 software (BD bioscience).
After treating human PBMCs with the STING agonist compounds, it was analyzed the activation of CD8^+ T cells and NK cells by measuring CD69, an activation marker, on their cell surface by flow cytometry.

T3 sequence (Q86WV6 whole entry R71H/G230A/H232R/R293Q): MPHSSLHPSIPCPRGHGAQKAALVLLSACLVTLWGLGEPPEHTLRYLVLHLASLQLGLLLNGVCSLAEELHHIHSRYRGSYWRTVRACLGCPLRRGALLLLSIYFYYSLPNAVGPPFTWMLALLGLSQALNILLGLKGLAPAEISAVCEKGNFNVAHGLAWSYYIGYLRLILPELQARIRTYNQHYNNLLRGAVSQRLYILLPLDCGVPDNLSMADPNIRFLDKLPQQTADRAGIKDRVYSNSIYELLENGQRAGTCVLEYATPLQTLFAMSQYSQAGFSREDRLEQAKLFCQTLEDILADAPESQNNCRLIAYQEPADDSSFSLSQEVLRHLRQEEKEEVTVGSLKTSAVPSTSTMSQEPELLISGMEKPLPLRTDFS
T4 sequence (Q86WV6 whole entry H232R): as the sequence (Q86WV6 whole entry R71H/G230A/H232R/R293Q) above, with H71R, A230G, Q293R counted along it
T2 sequence (Q86WV6 whole entry H232R): as the sequence (Q86WV6 whole entry R71H/G230A/H232R/R293Q) above, with H71R, A230G, Q293R counted along it

As to `CCn1nc(C)cc1C(=O)Nc1nc2cc(C(N)=O)cc(OC)c2n1C/C=C/Cn1c(NC(=O)c2cc(C)nn2CC)nc2cc(C(N)=O)cc(OCCCN3CCOCC3)c21` [Comparative #1, reference compound], the CC50 at 72 h in data set [1] came to 2.1 nM. In data set [2] (n = 3, dose-normalised), the “AUC∞, norm” value was determined as 0.66 ± 0.07 kg·h/L and the “Cmax, norm” value is on record as 1.94 ± 0.30 kg/L. In data set [2] (female, n = 3, plasma), this compound came in with an AUC(0-inf) of 990 ± 100 ng·h/mL, an AUC(0-t) of 980 ± 100 ng·h/mL, a C0 of 4630 ± 860 ng/mL and a Cmax of 2910 ± 450 ng/mL. In addition, in data set [2] (female, plasma, n = 3), the clearance was 25.5 mL/min/kg and the half-life was 54.6 ± 2.4 min. For the same compound, the Vd in data set [2] (female, plasma, n = 3, read-out: VSS) is 0.7 ± 0.15 L/kg. Moreover, the CC50 at 72 h in data set [3] was 3.34 nM.
For the compound `CCn1nc(C)cc1C(=O)Nc1nc2cc(C(N)=O)cc(OC)c2n1C/C=C/Cn1c(NC(=O)c2cc(C)nn2CC)nc2cc(C(N)=O)cc(OC/C=C/CN3CCN(C(=O)OCc4ccc(O[C@@H]5O[C@H](C(=O)O)[C@@H](O)[C@H](O)[C@H]5O)c(C(=O)NCCOCCOCCO)c4)CC3=O)c21` [Compound 302], the EC50 on hSTING H232 variant stood at 96.6 nM; on hSTING-WT (R232), 46.7 nM; on hSTING HAQ variant it was 83.5 nM; at human STING it was 0.38 nM. Moreover, the figures for the CC50 at 72 h in data set [1] and in data set [3] were 21.5 nM and 59.2 nM, respectively.
On to `CCn1nc(C)cc1C(=O)Nc1nc2cc(C(N)=O)cc(OC)c2n1C/C=C/Cn1c(NC(=O)c2cc(C)nn2CC)nc2cc(C(N)=O)cc(OC/C=C/Cn3cc(NC(=O)OCc4ccc(O[C@@H]5O[C@H](C(=O)O)[C@@H](O)[C@H](O)[C@H]5O)c(C(=O)NCCOCCOCCO[C@@H]5O[C@H](C(=O)O)[C@@H](O)[C@H](O)[C@H]5O)c4)cn3)c21` [Compound 344], for which, in data set [4], the “expansion of activated CD8+ T cells” value is “enhanced expansion” and the “expansion of activated NK cells” value is given as “enhanced expansion”. The EC50 at hSTING-WT (R232) was found to be 11.1 nM. In addition, the EC50 on human STING was 0.24 nM.
Take `CCn1nc(C)cc1C(=O)Nc1nc2cc(C(N)=O)cc(OC/C=C/Cn3cc(NC(=O)OCc4ccc(O[C@@H]5O[C@H](C(=O)O)[C@@H](O)[C@H](O)[C@H]5O)c(C(=O)NCCOCCOCCN5CCOCC5)c4)cn3)c2n1C/C=C/Cn1c(NC(=O)c2cc(C)nn2CC)nc2cc(C(N)=O)cc(OCCCC(=O)O)c21` [Compound 361]: in data set [4], the “expansion of activated CD8+ T cells” value was “enhanced expansion” and the “expansion of activated NK cells” value is recorded as “enhanced expansion”. Besides, at hSTING-WT (R232), the EC50 is 35.8 nM. Besides, on human STING, the EC50 was 0.1 nM.
As for `CCn1nc(C)cc1C(=O)Nc1nc2cc(C(N)=O)cc(NC/C=C/Cn3cc(N(CCC(=O)O)C(=O)OCc4ccc(O[C@@H]5O[C@H](C(=O)O)[C@@H](O)[C@H](O)[C@H]5O)c(C(=O)NCCOCCOCCN(C)C)c4)cn3)c2n1C/C=C/Cn1c(NC(=O)c2cc(C)nn2CC)nc2cc(C(N)=O)cc(OC)c21` [Compound 363], the values for the half-maximal effective concentration (EC50) at hSTING-WT (R232) and on human STING were 403 nM and 0.8 nM, respectively. Also, the 50% cytotoxic concentration (CC50) at 72 h in data set [1] came to 86.1 nM.
As for `CCn1nc(C)cc1C(=O)Nc1nc2cc(C(N)=O)cc(OC/C=C/Cn3cc(NC(=O)OCc4ccc(O[C@@H]5O[C@H](C(=O)O)[C@@H](O)[C@H](O)[C@H]5O)c(C(=O)NCCOCCOCCO[C@@H]5O[C@H](C(=O)O)[C@@H](O)[C@H](O)[C@H]5O)c4)cn3)c2n1C/C=C/Cn1c(NC(=O)c2cc(C)nn2CC)nc2cc(C(N)=O)cc(OCCCC(=O)O)c21` [Compound 396], the EC50 at hSTING-WT (R232) was determined as 240 nM. In addition, in data set [1], the cytotoxic concentration (CC50) at 72 h turned out to be 156 nM.
Consider `CCn1nc(C)cc1C(=O)Nc1nc2cc(C(N)=O)cc(OC)c2n1C/C=C/Cn1c(NC(=O)c2cc(C)nn2CC)nc2cc(C(N)=O)cc(OC/C=C/CN3CCCN3C(=O)OCc3ccc(O[C@@H]4O[C@H](C(=O)O)[C@@H](O)[C@H](O)[C@H]4O)c(C(=O)NCCOCCOCCO)c3)c21` [Compound 422], for which the EC50 on hSTING H232 variant was 119 nM; at hSTING-WT (R232) it was 45 nM; at hSTING HAQ variant it was 477 nM; on human STING, 0.92 nM. Moreover, the CC50 at 72 h was 32.1 nM in data set [1] and 207 nM in data set [3].
On to `CCn1nc(C)cc1C(=O)Nc1nc2cc(C(N)=O)cc(OC)c2n1C/C=C/Cn1c(NC(=O)c2cc(C)nn2CC)nc2cc(C(N)=O)cc(OC/C=C/CN3CCCN3C(=O)OCc3ccc(O[C@@H]4O[C@H](C(=O)O)[C@@H](O)[C@H](O)[C@H]4O)c(C(=O)NCCOCCOCCN(C)C)c3)c21` [Compound 424], for which the concentration for a half-maximal effect (EC50) on hSTING H232 variant was determined as 117 nM; at hSTING-WT (R232) it was 72 nM; on hSTING HAQ variant it was 517 nM; on human STING, 1.6 nM. The results for the CC50 at 72 h in data set [1] and in data set [3] were 30.6 nM and 147 nM, respectively.

The record behind these values is patent US20260167659A1, “STING AGONISTS” (LIGACHEM BIOSCIENCES INC., priority 2022, published 2026).
